Values of other authors, collected in patent US7625587B2, “Hepato phyto-nutraceutical synergistic composition” (priority 2006, dated 2009).

Experiments:
[1] = system: hepatic toxicity induced by paracetamol, prednisolone and bromobenzene; details: mice; pre-treatment during ten days
mice hepatocytes [2] = system: mice hepatocytes
[3] = system: bacterial resistance mechanism (multidrug pump); details: in the presence of 5′-MHC
[4] = system: carbon tetrachloride hepatotoxicity; details: mouse, in vivo
mice hepatocytes [5] = system: mice hepatocytes; remark: listed apart in the source
[6] = system: 11_beta-hydroxysteroid dehydrogenase; details: in vitro
beta-reductase = details: in vitro
hepatic mitochondria = details: free oxygen radical induced damage

In the case of `COc1cc(/C=C/C(=O)[O-])ccc1O.[Na+]` [sodium ferulate], the “drug induced hepatic toxicity” value [1] is given as “improved the hepatic toxicity”.

For `CC1(C)[C@@H](O[C@H]2O[C@H](C(=O)O)[C@@H](O)[C@H](O)[C@H]2O[C@@H]2O[C@H](C(=O)O)[C@@H](O)[C@H](O)[C@H]2O)CC[C@]2(C)[C@H]3C(=O)C=C4[C@@H]5C[C@@](C)(C(=O)O)CC[C@]5(C)CC[C@@]4(C)[C@]3(C)CC[C@@H]12` [glicirricinic acid], the “toxic action of carbon tetrachloride and of galactosamine” value (mice hepatocytes [2]) is listed as “reduces the toxic action”.

In the case of `COc1cc([C@H]2Oc3cc(-c4cc(=O)c5c(O)cc(O)cc5o4)cc(OC)c3O[C@@H]2CO)ccc1O` (racemic) [5′-methoxyhydnocarpin], the “accumulation of berberine in the cells” value [3] is given as “strong increase of accumulation of berberine”.

For `CC1(C)[C@@H](O[C@H]2O[C@H](C(=O)O)[C@@H](O)[C@H](O)[C@H]2O[C@@H]2O[C@H](C(=O)O)[C@@H](O)[C@H](O)[C@H]2O)CC[C@]2(C)[C@H]3C(=O)C=C4[C@@H]5C[C@@](C)(C(=O)O)CC[C@]5(C)CC[C@@]4(C)[C@]3(C)CC[C@@H]12` [Glycyrrhizin], the “hepatic injuries induced by carbon tetrachloride” value [4] is given as “prevented hepatic injuries” and the liberation of histamine (mice hepatocytes [5]) is given as “inhibited the liberation of histamine”.

In the case of `CC1(C)[C@@H](O)CC[C@]2(C)[C@H]3C(=O)C=C4[C@@H]5C[C@@](C)(C(=O)O)CC[C@]5(C)CC[C@@]4(C)[C@]3(C)CC[C@@H]12` [glycyrrhetic acid], the “inhibition of 11_beta-hydroxysteroid dehydrogenase” value [6] is given as “inhibits” and the inhibition of beta-reductase (beta-reductase) is given as “inhibits”.

For `COc1cc(/C=C/C(=O)O)ccc1O` [Ferulic acid, ferulic acid], the “protection of hepatic mitochondria” value (hepatic mitochondria) is listed as “protected the hepatic mitochondria”.
